Results as given in ChEMBL document CHEMBL1201862, “PubChem BioAssay data set” (2004).
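Test compounds were applied to cells in 96-well plates for 48 hours at 5 doses. At the GI50, growth is halved.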 Calls of active or inactive are those of the source. No stated cut-off is given here; in the data, active = GI50 up to about 1.1 µM and inactive = higher.

Key:
Assay in all cases: DTP human tumour cell line panel, 48 h
786-0 = tested on: 786-0
A549 = tested on: A549
CAKI-1 = tested on: CAKI-1
HCC 2998 = tested on: HCC 2998
HT-29 = tested on: HT-29
K562 = tested on: K562
MOLT-4 = tested on: MOLT-4
NCI-H522 = tested on: NCI-H522
OVCAR-5 = tested on: OVCAR-5
RPMI-8226 = tested on: RPMI-8226
SK-MEL-28 = tested on: SK-MEL-28
SK-OV-3 = tested on: SK-OV-3
SW-620 = tested on: SW-620
UACC-257 = tested on: UACC-257
UACC-62 = tested on: UACC-62
UO-31 = tested on: UO-31

Measured: GI50

CC(=O)OC1(C)C(=O)OC1(C)C(C)=O (stereo not drawn)
inactive: 786-0 > 100 µM | A549 > 100 µM | CAKI-1 > 100 µM | HCC 2998 > 100 µM | HT-29 > 100 µM | K562 > 100 µM | MOLT-4 > 100 µM | NCI-H522 > 100 µM | OVCAR-5 > 100 µM | RPMI-8226 > 100 µM | SK-MEL-28 > 100 µM | SK-OV-3 > 100 µM | SW-620 > 100 µM | UACC-257 > 100 µM | UACC-62 > 100 µM | UO-31 > 100 µM

CCOc1ccccc1NC(=O)CSc1nnc(Cc2ccccc2)o1
inactive: 786-0 17.9 µM | A549 > 100 µM | CAKI-1 20.5 µM | HCC 2998 48.1 µM | HT-29 35.3 µM | K562 54.8 µM | MOLT-4 23 µM | NCI-H522 18.2 µM | OVCAR-5 66.1 µM | RPMI-8226 35.6 µM | SK-MEL-28 71.4 µM | SK-OV-3 44.9 µM | SW-620 16.6 µM | UACC-257 29.7 µM | UACC-62 25.8 µM | UO-31 23.9 µM

CCn1c(=O)nc2n(-c3ccc(SC)cc3)c3ccccc3nc-2c1=O
inactive: 786-0 > 100 µM | A549 29.1 µM | CAKI-1 32.9 µM | HCC 2998 29 µM | K562 > 100 µM | MOLT-4 > 100 µM | NCI-H522 > 100 µM | OVCAR-5 > 100 µM | RPMI-8226 71.1 µM | SK-MEL-28 > 100 µM | SK-OV-3 > 100 µM | SW-620 17.7 µM | UACC-257 > 100 µM | UACC-62 50.9 µM | UO-31 > 100 µM

CCOC(=O)c1ccc(-n2c(SCC)nc3sc(C)c(C)c3c2=O)cc1
inactive: 786-0 85.9 µM | A549 > 100 µM | CAKI-1 > 100 µM | HCC 2998 > 100 µM | HT-29 > 100 µM | K562 > 100 µM | MOLT-4 > 10 µM | NCI-H522 > 100 µM | OVCAR-5 > 100 µM | RPMI-8226 > 100 µM | SK-MEL-28 > 100 µM | SK-OV-3 > 100 µM | SW-620 > 100 µM | UACC-257 > 100 µM | UACC-62 > 100 µM | UO-31 > 100 µM

N=c1n(CC(=O)NC23CC4CC(CC(C4)C2)C3)c2ccccc2n1CC(=O)NC12CC3CC(CC(C3)C1)C2
inactive: 786-0 1.8 µM | A549 2.07 µM | CAKI-1 12 µM | HCC 2998 1.36 µM | HT-29 1.8 µM | K562 2.82 µM | MOLT-4 2.64 µM | NCI-H522 1.9 µM | OVCAR-5 1.69 µM | RPMI-8226 2.21 µM | SK-MEL-28 1.79 µM | SK-OV-3 15.7 µM | SW-620 1.63 µM | UACC-257 1.73 µM | UACC-62 1.96 µM | UO-31 13.2 µM

Cc1cccc(O)c(=O)c1
inactive: 786-0 9.12 µM | A549 24.9 µM | CAKI-1 63.1 µM | HCC 2998 44.4 µM | HT-29 19 µM | MOLT-4 6.38 µM | NCI-H522 6.79 µM | OVCAR-5 47.6 µM | RPMI-8226 7.6 µM | SK-MEL-28 49.4 µM | SK-OV-3 > 100 µM | SW-620 16.4 µM | UACC-257 28.3 µM | UACC-62 11.4 µM | UO-31 73.3 µM

COc1ccc(-c2csc(=[N+]3CCCCC3)s2)cc1
inactive: 786-0 4.83 µM | A549 1.94 µM | CAKI-1 2.36 µM | HCC 2998 3.85 µM | HT-29 3.01 µM | K562 2.23 µM | MOLT-4 2.53 µM | NCI-H522 1.72 µM | OVCAR-5 8.83 µM | RPMI-8226 2.11 µM | SK-MEL-28 6 µM | SK-OV-3 3.41 µM | SW-620 2.88 µM | UACC-257 3.34 µM | UACC-62 7.78 µM | UO-31 > 100 µM

CS(=O)(=O)NNS(=O)(=O)c1ccc(Br)cc1
inactive: 786-0 > 100 µM | A549 > 100 µM | CAKI-1 > 100 µM | HCC 2998 > 100 µM | HT-29 > 100 µM | K562 > 100 µM | NCI-H522 > 100 µM | OVCAR-5 > 100 µM | RPMI-8226 > 100 µM | SK-MEL-28 > 100 µM | SK-OV-3 > 100 µM | SW-620 > 100 µM | UACC-257 > 100 µM | UACC-62 > 100 µM | UO-31 > 100 µM

C(=C1\CCC/C(=C/c2ccccc2)C1=NNc1ccccc1)/c1ccccc1
inactive: 786-0 > 100 µM | A549 > 100 µM | HCC 2998 > 100 µM | HT-29 > 100 µM | K562 > 100 µM | MOLT-4 > 100 µM | NCI-H522 > 100 µM | OVCAR-5 > 100 µM | RPMI-8226 > 100 µM | SK-MEL-28 > 100 µM | SK-OV-3 > 100 µM | SW-620 > 100 µM | UACC-257 > 100 µM | UACC-62 > 100 µM | UO-31 > 100 µM

COC(=O)CCC(=O)C(CC(=O)OC)C(=O)CCC(=O)NCCc1ccccc1 (stereo not drawn)
inactive: 786-0 > 100 µM | A549 > 100 µM | CAKI-1 > 100 µM | HCC 2998 > 100 µM | HT-29 > 100 µM | K562 > 100 µM | MOLT-4 > 100 µM | NCI-H522 > 100 µM | OVCAR-5 > 100 µM | RPMI-8226 > 100 µM | SK-MEL-28 > 100 µM | SK-OV-3 > 100 µM | SW-620 > 100 µM | UACC-257 > 100 µM | UACC-62 > 100 µM | UO-31 > 100 µM

CSC(C1c2ccccc2N(C)C2=NC(=O)N(C)C(=O)C21Cl)S(=O)(=O)c1ccc(C)cc1 (stereo not drawn)
inactive: 786-0 18.8 µM | A549 > 100 µM | CAKI-1 24.9 µM | HCC 2998 > 100 µM | HT-29 34.1 µM | K562 16.7 µM | MOLT-4 17.5 µM | NCI-H522 15.7 µM | OVCAR-5 > 100 µM | RPMI-8226 26.2 µM | SK-MEL-28 25 µM | SK-OV-3 > 100 µM | SW-620 26.6 µM | UACC-257 79.1 µM | UACC-62 91.8 µM | UO-31 79.8 µM

CC1(C)CCCC2(C)[C@@H]1CC[C@@]13CC(=O)[C@@](C)(CC[C@@H]21)C3 (stereo partly drawn)
inactive: 786-0 > 100 µM | A549 85.1 µM | CAKI-1 > 100 µM | HCC 2998 > 100 µM | HT-29 30 µM | K562 > 100 µM | MOLT-4 57.4 µM | NCI-H522 20.9 µM | OVCAR-5 > 100 µM | RPMI-8226 57 µM | SK-MEL-28 > 100 µM | SK-OV-3 > 100 µM | SW-620 > 100 µM | UACC-257 32.7 µM | UACC-62 > 100 µM | UO-31 > 100 µM

O=P1(c2ccccc2)CCCCC1
inactive: 786-0 > 100 µM | A549 > 100 µM | HCC 2998 > 100 µM | HT-29 > 100 µM | K562 > 100 µM | MOLT-4 > 100 µM | NCI-H522 > 10 µM | OVCAR-5 > 100 µM | RPMI-8226 > 100 µM | SK-MEL-28 > 100 µM | SK-OV-3 > 100 µM | SW-620 > 10 µM | UACC-257 > 100 µM | UACC-62 > 100 µM | UO-31 > 100 µM
